Test results: patent US20060264406A1, “Mono-lysine salts of azole compounds” (Eisai Co., Ltd., priority 2005, published 2006)
Where a name gives a salt, the structure may show the parent alone.

Columns and labels:
Type in all cases: physicochemical
[1] = moisture uptake (weight change versus relative humidity); details: 60% RH
Description: Weight change (y-axis) versus relative humidity (x-axis) is shown, wherein adsorption is shown by -∘-, and desorption by -∘-.
For instance, Comparative Example 1 has about 10% change in weight at 60% RH (FIG. 1), whereas Example 1 has about 2-2.5% change in weight at the same humidity level (FIG. 2). On average, the mono-lysine salt or solvate thereof has better stability over the bis-lysine form (FIG. 4).

[2] = physical stability under stressed storage conditions (area percent); details: for degradation on storage: 2-week stability data
[3] = aqueous solubility of the salts and solvates; details: water
Method: The obtained solvate of the mono-lysine salt of ((2R,3R)-3-(4-(4-cyanophenyl)thiazol-2-yl)-2-(2,4-difluorophenyl)-1-(1H-1,2,4-triazol-1-yl)butan-2-yloxy)methyl dihydrogen phosphate is scaled up and fully characterized. Physical-chemical properties including solubility, stability, moisture uptake, compaction, etc., are evaluated and compared to the bis-lysine salt of Comparative Example 1.
Also, Example 1 retains a high aqueous solubility (>200 mg/mL) similar to that of the bis-lysine salt of Comparative Example 1.

## C[C@@H](c1nc(-c2ccc(C#N)cc2)cs1)[C@@](Cn1cncn1)(OCOP(=O)(O)O)c1ccc(F)cc1F.NCCCC[C@H](N)C(=O)O.NCCCC[C@H](N)C(=O)O [Comparative Example 1, Bis-lysine salt of (2R,3R)-3-[4-(4-cyanophenyl)thiazol-2-yl]-2-(2,4-difluorophenyl)-1-(1H-1,2,4-triazol-1-yl)-2-[(dihydrogenphosphonoxy)methoxy]butane, reference compound]
[1]
  change in weight (moisture uptake): about 10%
[1]; listed as bis-lysine monoethanolate
  change in weight (moisture uptake): 10%

## C[C@@H](c1nc(-c2ccc(C#N)cc2)cs1)[C@@](Cn1cncn1)(OCOP(=O)(O)O)c1ccc(F)cc1F [Example 1, ((2R,3R)-3-(4-(4-cyanophenyl)thiazol-2-yl)-2-(2,4-difluorophenyl)-1-(1H-1,2,4-triazol-1-yl)butan-2-yloxy)methyl dihydrogen phosphate mono-lysine salt ethanol solvate]
[2]; 40° C./75% RH (open and closed)
  degradation on storage: minimal degradation
[2]; any other storage conditions
  degradation on storage: No degradation
[2]; 5° C., 1 Week
  Area Percent (AP as phosphonoxoxymethyl ether derivative of ravuconazole): 98.47 Area Percent
[2]; 5° C., 2 Weeks
  Area Percent (AP as phosphonoxoxymethyl ether derivative of ravuconazole): 99.60 Area Percent
[2]; 5° C., 5 Days
  Area Percent (AP as phosphonoxoxymethyl ether derivative of ravuconazole): 99.59 Area Percent
[2]; 25° C./60% RH (Closed), 1 Week
  Area Percent (AP as phosphonoxoxymethyl ether derivative of ravuconazole): 99.66 Area Percent
[2]; 25° C./60% RH (Closed), 2 Weeks
  Area Percent (AP as phosphonoxoxymethyl ether derivative of ravuconazole): 99.21 Area Percent
[2]; 25° C./60% RH (Closed), 5 Days
  Area Percent (AP as phosphonoxoxymethyl ether derivative of ravuconazole): 99.59 Area Percent
[2]; 25° C./60% RH (Open), 1 Week
  Area Percent (AP as phosphonoxoxymethyl ether derivative of ravuconazole): 99.65 Area Percent
[2]; 25° C./60% RH (Open), 2 Weeks
  Area Percent (AP as phosphonoxoxymethyl ether derivative of ravuconazole): 99.42 Area Percent
[2]; 25° C./60% RH (Open), 5 Days
  Area Percent (AP as phosphonoxoxymethyl ether derivative of ravuconazole): 99.61 Area Percent
[2]; 40° C./75% RH (Closed), 1 Week
  Area Percent (AP as phosphonoxoxymethyl ether derivative of ravuconazole): 99.05 Area Percent
[2]; 40° C./75% RH (Closed), 2 Weeks
  Area Percent (AP as phosphonoxoxymethyl ether derivative of ravuconazole): 97.90 Area Percent
[2]; 40° C./75% RH (Closed), 5 Days
  Area Percent (AP as phosphonoxoxymethyl ether derivative of ravuconazole): 99.20 Area Percent
[2]; 40° C./75% RH (Open), 1 Week
  Area Percent (AP as phosphonoxoxymethyl ether derivative of ravuconazole): 98.76 Area Percent
[2]; 40° C./75% RH (Open), 2 Weeks
  Area Percent (AP as phosphonoxoxymethyl ether derivative of ravuconazole): 96.90 Area Percent
[2]; 40° C./75% RH (Open), 5 Days
  Area Percent (AP as phosphonoxoxymethyl ether derivative of ravuconazole): 98.97 Area Percent
[2]; 60° C., 1 Week
  Area Percent (AP as phosphonoxoxymethyl ether derivative of ravuconazole): 99.70 Area Percent
[2]; 60° C., 2 Weeks
  Area Percent (AP as phosphonoxoxymethyl ether derivative of ravuconazole): 99.73 Area Percent
[2]; 60° C., 5 Days
  Area Percent (AP as phosphonoxoxymethyl ether derivative of ravuconazole): 99.70 Area Percent
[2]; HIL/UV (Controlled), 1 Week
  Area Percent (AP as phosphonoxoxymethyl ether derivative of ravuconazole): 99.64 Area Percent
[2]; HIL/UV (Controlled), 2 Weeks
  Area Percent (AP as phosphonoxoxymethyl ether derivative of ravuconazole): 99.68 Area Percent
[2]; HIL/UV (Controlled), 5 Days
  Area Percent (AP as phosphonoxoxymethyl ether derivative of ravuconazole): 99.60 Area Percent
[2]; HIL/UV (Exposed), 1 Week
  Area Percent (AP as phosphonoxoxymethyl ether derivative of ravuconazole): 98.68 Area Percent
[2]; HIL/UV (Exposed), 2 Weeks
  Area Percent (AP as phosphonoxoxymethyl ether derivative of ravuconazole): 99.68 Area Percent
[2]; HIL/UV (Exposed), 5 Days
  Area Percent (AP as phosphonoxoxymethyl ether derivative of ravuconazole): 99.61 Area Percent
[2]; Initial
  Area Percent (AP as phosphonoxoxymethyl ether derivative of ravuconazole): 99.56 Area Percent
[1]
  change in weight (moisture uptake): 2-2.5%
  weight change for adsorption: < 2.5%
  weight change for desorption: < 5%
[1]; listed as mono-lysine monoethanolate
  change in weight (moisture uptake): 2-3%
[3]
  Solubility: >200 mg/mL
  solubility: > 200 mg/mL

## CC(C)O.C[C@@H](c1nc(-c2ccc(C#N)cc2)cs1)[C@@](Cn1cncn1)(OCOP(=O)(O)O)c1ccc(F)cc1F.NCCCC[C@H](N)C(=O)O [Example 5, ((2R,3R)-3-(4-(4-cyanophenyl)thiazol-2-yl)-2-(2,4-difluorophenyl)-1-(1H-1,2,4-triazol-1-yl)butan-2-yloxy)methyl dihydrogen phosphate mono-lysine salt isopropyl alcohol solvate]
[1]
  weight change for adsorption: < 0.5%
